One experiment has as its system E. cloacae 963. Kind of experiment: in vitro antibacterial activity, agar plate dilution method (MIC). The class given is cell-based. Conditions: 10^6 CFU/ml. Here is the method:
(§1) The in vitro antibacterial activities of the compounds of the present invention against various microorganisms, were measured by the following agar plate dilution method. One platinum loopfull of each test microorganism incubated overnight in Mueller Hinton broth, was inoculated to Mueller Hinton agar (inoculum size: 10^6 CFU/ml). Such culture media containing various antibiotics in various concentrations were prepared. After incubation at 37° C. for 16 hours, the minimum inhibitory concentrations (MIC: μg/ml) were measured.

In another experiment the test system is E. cloacae Nek 39. Described as above. The class given is cell-based. Conditions: 10^6 CFU/ml; for Minimum Inhibitory Concentration (MIC): *E. cloacae Nek 39, lactamase-producing strain. How it is done:
as §1

The test system of the next experiment is S. marcescens IAM 1184. The description is as above. It counts as cell-based. To be noted: S. marcescens IAM 1184, 10^6 CFU/ml. How it is done: as §1
A further experiment has as its system P. vulgaris HX-19. The experiment is described as above. To be noted: for Minimum Inhibitory Concentration (MIC): P. vulgaris HX-19, 10^6 CFU/ml. The class given is cell-based. Here is the method:
as §1

The test system of the next experiment is E. coli NIHJ JC2. Described as above. It counts as cell-based. Conditions: for MIC: Escherichia coli, NIHJJC2, 16 h, read-out: Minimum Inhibitory Concentration (MIC), E. coli NIHJ JC2, 10^6 CFU/ml, 37° C. How it is done:
as §1

In a further experiment the test system is K. pneumoniae PCI-602. The experiment is described as above. The class given is cell-based. Conditions: 10^6 CFU/ml; for MIC: Klebsiella pneumoniae, PCI602, 16 h, read-out: Minimum Inhibitory Concentration (MIC), K. pneumoniae PCI-602. How it is done:
as §1

Another experiment concerns M. morganii GN5407. The description is as above. Conditions: *M. morganii GN5407, lactamase-producing strain; 10^6 CFU/ml. It counts as cell-based. Here is the method:
as §1

The subject of the next experiment is P. vulgaris No. 33. The experiment is described as above. The class given is cell-based. To be noted: *P. vulgaris No. 33, lactamase-producing strain; 10^6 CFU/ml. How it is done:
as §1

The next experiment relates to E. coli GN5482. Described as above. The class given is cell-based. Conditions: for MIC: Escherichia coli, GN5482, 16 h, read-out: Minimum Inhibitory Concentration (MIC). How it is done: as §1
For the next experiment, the system named is S. aureus 209P NIHJ-JC1. The description is as above. The class given is cell-based. To be noted: Staphylococcus aureus, 16 h. How it is done:
as §1

The next experiment concerns K. pneumoniae No. 42. The experiment is described as above. It counts as cell-based. Conditions: 10^6 CFU/ml; for Minimum Inhibitory Concentration (MIC): *K. pneumoniae No. 42, lactamase-producing strain. Here is the method: as §1
The next experiment deals with S. marcescens No. 16-2. The experiment is described as above. It counts as cell-based. To be noted: for MIC: Serratia marcescens, NO.162, 16 h. How it is done:
as §1

For the next experiment, the system named is K. oxytoca GN10650. The experiment is described as above. It counts as cell-based. Conditions: 10^6 CFU/ml; for Minimum Inhibitory Concentration (MIC): *K. oxytoca GN10650, lactamase-producing strain. Here is the method:
as §1

The next experiment deals with E. coli CSH2 (RK1). The experiment in a line: microbe, parasite or virus in culture. The class given is cell-based. To be noted: *E. coli CSH2 (RK1), lactamase-producing strain; 10^6 CFU/ml. Here is the method: as §1
A further experiment deals with E. coli CSH(RE45). The experiment in a line: microbe, parasite or virus in culture. The class given is cell-based. To be noted: *E. coli CSH(RE45), lactamase-producing strain; 10^6 CFU/ml. How it is done:
as §1

The next experiment relates to A. calcoaceticus No. 4. Kind of experiment: in vitro antibacterial activity, agar plate dilution method (MIC). It counts as cell-based, Acinetobacter calcoaceticus. Conditions: A. calcoaceticus No. 4, 10^6 CFU/ml; for MIC: Acinetobacter calcoaceticus, NO.4, 16 h, read-out: Minimum Inhibitory Concentration (MIC). Here is the method: as §1
A further experiment concerns Ps. aeruginosa IF03445. Described as above. The class given is cell-based, Pseudomonas aeruginosa. To be noted: 10^6 CFU/ml; for Minimum Inhibitory Concentration (MIC): Ps. aeruginosa IF03445. Here is the method:
as §1

The subject of another experiment is Ps. aeruginosa AKR17. The description is as above. It counts as cell-based, Pseudomonas aeruginosa. Conditions: 10^6 CFU/ml; for MIC: Pseudomonas aeruginosa. Here is the method: as §1
Another experiment concerns Ps. aeruginosa AK 109. The experiment is described as above. The class given is cell-based, Pseudomonas aeruginosa. To be noted: Ps. aeruginosa AK 109, 10^6 CFU/ml; for MIC: Pseudomonas aeruginosa, AK109, 16 h, read-out: Minimum Inhibitory Concentration (MIC). Here is the method:
as §1

Another experiment deals with Ps. cepacia 23. The experiment is described as above. The class given is cell-based, Pseudomonas cepacia. To be noted: Ps. cepacia 23, 10^6 CFU/ml; for MIC: Burkholderia cepacia, 16 h, read-out: Minimum Inhibitory Concentration (MIC). Here is the method: as §1
The mark [1] stands for this setting: Enterobacter cloacae, 963, 16 h, read-out: Minimum Inhibitory Concentration (MIC), E. cloacae 963.
The mark [2] stands for this setting: read-out: Minimum Inhibitory Concentration (MIC).

Read-outs that look alike come from different tables or passages of the source.

Turning to `Nc1nc(/C(=N/OC(C(=O)O)c2ccccc2)C(=O)N[C@@H]2C(=O)N3C(C(=O)O)=C(CSc4nnc(-c5ccc(O)c(O)c5)o4)CS[C@H]23)cs1` (single isomer, unassigned) [Example 24 DA, disodium 78-[2-(2-aminothiazol-4-yl)-2-(α-carboxylatebenzyloxyimino)acetamido]-3-[5-(3,4-dihydroxyphenyl)-1,3,4-oxadiazol-2-yl]-thiomethyl-3-cephem-4-carboxylate], the MIC in the experiment on E. cloacae 963 (setting [1]) was 0.05 µg/mL; in the experiment on E. cloacae Nek 39 (Enterobacter cloacae, NEK39, 16 h, read-out: Minimum Inhibitory Concentration (MIC), *E. cloacae Nek 39, lactamase-producing strain), 0.025 µg/mL; with S. marcescens IAM 1184 (Serratia marcescens, IAM1184, 16 h, read-out: Minimum Inhibitory Concentration (MIC)), 0.025 µg/mL; with E. coli NIHJ JC2 it was 0.2 µg/mL; in the experiment on K. pneumoniae PCI-602, less than 0.006 µg/mL; in the experiment on E. coli GN5482, 0.39 µg/mL. In addition, the MIC with S. aureus 209P NIHJ-JC1 (setting [2]) was 12.5 µg/mL; in the experiment on K. pneumoniae No. 42 (Klebsiella pneumoniae, NO.42, 16 h, read-out: Minimum Inhibitory Concentration (MIC), *K. pneumoniae No. 42, lactamase-producing strain), 0.0125 µg/mL; in the experiment with S. marcescens No. 16-2 (read-out: Minimum Inhibitory Concentration (MIC), *S. marcescens No. 16-2, lactamase-producing strain, 10^6 CFU/ml) it was 0.78 µg/mL; in the experiment on K. oxytoca GN10650 (Klebsiella oxytoca, GN10650, 16 h, read-out: Minimum Inhibitory Concentration (MIC), *K. oxytoca GN10650, lactamase-producing strain) it was 0.0125 µg/mL; with A. calcoaceticus No. 4, 0.05 µg/mL; in the experiment with Ps. aeruginosa IF03445 (Pseudomonas aeruginosa, IF03445, 16 h, read-out: Minimum Inhibitory Concentration (MIC), Ps. aeruginosa IF03445), 0.78 µg/mL. In addition, the MIC in the experiment on Ps. aeruginosa AKR17 (AKR17, 16 h, read-out: Minimum Inhibitory Concentration (MIC), Ps. aeruginosa AKR17) is 0.78 µg/mL; in the experiment on Ps. aeruginosa AK 109 it was 0.1 µg/mL; in the experiment with Ps. cepacia 23, less than 0.006 µg/mL. The “Minimum Inhibitory Concentration (MIC)” value in the experiment with P. vulgaris HX-19 was less than 0.006 µg/mL; in the experiment with M. morganii GN5407, 0.025 µg/mL; with P. vulgaris No. 33 it was 0.0125 µg/mL; with E. coli CSH2 (RK1) it was less than 0.006 µg/mL; in the experiment with E. coli CSH(RE45) it was less than 0.006 µg/mL.
With `Nc1nc(/C(=N/OC(C(=O)O)c2ccccc2)C(=O)N[C@@H]2C(=O)N3C(C(=O)O)=C(CSc4nnc(-c5ccc(O)c(O)c5)o4)CS[C@H]23)cs1` (single isomer, unassigned) [Example 24 DB, disodium 78-[2-(2-aminothiazol-4-yl)-2-(α-carboxylatebenzyloxyimino)acetamido]-3-[5-(3,4-dihydroxyphenyl)-1,3,4-oxadiazol-2-yl]-thiomethyl-3-cephem-4-carboxylate], the MIC with E. cloacae 963 (Enterobacter cloacae, 16 h, E. cloacae 963, read-out: Minimum Inhibitory Concentration (MIC)) is 0.1 µg/mL; in the experiment with S. aureus 209P NIHJ-JC1 (S. aureus 209P NIHJ-JC1, 10^6 CFU/ml, 37° C., 16 hours, read-out: Minimum Inhibitory Concentration (MIC)) it was 25 µg/mL. Also, the “Minimum Inhibitory Concentration (MIC)” value with E. cloacae Nek 39 was 0.05 µg/mL; in the experiment with S. marcescens IAM 1184, 0.05 µg/mL; in the experiment with P. vulgaris HX-19, 0.05 µg/mL; with E. coli NIHJ JC2 (E. coli NIHJ JC2, 10^6 CFU/ml, 37° C., 16 hours), 0.39 µg/mL; with K. pneumoniae PCI-602 (K. pneumoniae PCI-602), less than 0.006 µg/mL; in the experiment with M. morganii GN5407 it was 0.2 µg/mL. The “Minimum Inhibitory Concentration (MIC)” value is 0.1 µg/mL in the experiment with P. vulgaris No. 33; 0.39 µg/mL in the experiment with E. coli GN5482 (*E. coli GN5482, lactamase-producing strain, 10^6 CFU/ml); 0.025 µg/mL with K. pneumoniae No. 42; 0.78 µg/mL in the experiment with S. marcescens No. 16-2 (*S. marcescens No. 16-2, lactamase-producing strain, 10^6 CFU/ml); 0.025 µg/mL in the experiment on K. oxytoca GN10650; 0.0125 µg/mL with E. coli CSH2 (RK1). In addition, the “Minimum Inhibitory Concentration (MIC)” value in the experiment with E. coli CSH(RE45) was 0.0125 µg/mL; in the experiment with A. calcoaceticus No. 4, 0.05 µg/mL; in the experiment on Ps. aeruginosa IF03445, 1.56 µg/mL; in the experiment on Ps. aeruginosa AKR17 (Ps. aeruginosa AKR17) it was 0.78 µg/mL; in the experiment on Ps. aeruginosa AK 109, 0.2 µg/mL; in the experiment with Ps. cepacia 23, less than 0.006 µg/mL.
On to `Nc1nc(C(=NOC(C(=O)O)c2ccc(O)c(O)c2)C(=O)NC2C(=O)N3C(C(=O)O)=C(CSc4nnc(-c5ccc(O)c(O)c5)s4)CSC23)cs1` (single isomer, unassigned) [Example 38 DA, disodium 7β-{2-(2-aminothiazol-4-yl)-2-(α-carboxylate-3,4-dihydroxybenzyloxyimino)acetamido]-3-[5-(3,4-dihydroxyphenyl)-1,3,4-thiadiazol-2-yl]thiomethyl-3-cephem-4-carboxylate], for which the MIC is 0.05 µg/mL with E. cloacae 963 (setting [1]); 0.0125 µg/mL in the experiment on P. vulgaris HX-19 (Proteus vulgaris, HX19, 16 h, read-out: Minimum Inhibitory Concentration (MIC)); 0.2 µg/mL in the experiment with E. coli NIHJ JC2; less than 0.006 µg/mL in the experiment on K. pneumoniae PCI-602; 0.2 µg/mL with E. coli GN5482; 0.78 µg/mL with S. aureus 209P NIHJ-JC1 (read-out: Minimum Inhibitory Concentration (MIC), S. aureus 209P NIHJ-JC1, 10^6 CFU/ml, 37° C., 16 hours). Besides, the MIC with S. marcescens No. 16-2 (setting [2]) is 0.2 µg/mL; in the experiment on A. calcoaceticus No. 4 it was 0.025 µg/mL; with Ps. aeruginosa AKR17 (16 h, Ps. aeruginosa AKR17, read-out: Minimum Inhibitory Concentration (MIC)) it was 0.1 µg/mL; with Ps. aeruginosa AK 109, 0.2 µg/mL; in the experiment on Ps. cepacia 23, less than 0.006 µg/mL. For the same compound, the “Minimum Inhibitory Concentration (MIC)” value was 0.1 µg/mL with E. cloacae Nek 39; 0.025 µg/mL in the experiment on S. marcescens IAM 1184; 0.05 µg/mL with M. morganii GN5407; 0.025 µg/mL with P. vulgaris No. 33; 0.0125 µg/mL in the experiment with K. pneumoniae No. 42; 0.025 µg/mL with K. oxytoca GN10650. The “Minimum Inhibitory Concentration (MIC)” value is less than 0.006 µg/mL in the experiment with E. coli CSH2 (RK1), less than 0.006 µg/mL with E. coli CSH(RE45) and 0.39 µg/mL with Ps. aeruginosa IF03445.

Source of the values: patent US5061794A, “Cephalosporin derivatives, and antibacterial agents” (priority 1986, dated 1991).
